Data published in patent US20180317415A1, “NANOBIONIC LIGHT EMITTING PLANTS” (MASSACHUSETTS INSTITUTE OF TECHNOLOGY, priority 2015, published 2018).
pIC50: −log10 of the molar value.

Assays:
[1] = test system: firefly luciferase-luciferin reaction; test: light production and light duration in vitro (test tube mixture, photos analysed by Image J); assay type: biochemical; details: for light duration extended by: PLGA-LH2 1 mM, CS-CoA 625 μM
living watercress plant = test: light emission in living watercress plant after LIN/PBIN infiltration of nanoparticles; assay type: in vivo, watercress (Nasturtium officinale); details: 1-2 hours compared to 30 minutes incubation of SNP-Luc (LIN) before free luciferin 0.1 mM
Procedure: Leaf discs of spinach plants 3 week-olds were infiltrated with 30 mM HEPES buffer (pH 7.4) via PBIN at speed of 0.4 bar/s and cell membranes were stained with FM 464 fluorescent dye (red).
SNP-Luc was infiltrated by LIN 1 h in advance, and PLGA-LH alone or PLGA-LH and CS-CoA were infused into a watercress plant by PBIN. […] To extend the illumination time, the third nanoparticle class, CS-CoA, was co-infiltrated with PLGA-LH by PBIN. […] In FIG. 3E, a and b represent concentration of SNP-Luc (μM) and concentration of PLGA-LH2 (mM), respectively. […] Maximum number of photons/sec was obtained from the first photo (analyzed by Image J). […]
Infiltration of nanoparticles in living plants. […] The pressure was monitored by digital hydronic manometer (Dwyer instruments, IN, USA). […]
Estimation of photon numbers from light emitting plants. The power of LED light was first measured at 12.70 cm away using a photo-detector (λ=530 nm, detector surface area=1 cm^2) (PM100, ThorLabs, NJ, USA). The number of photons incident on the photo-detector was determined using the measured power (10 nW) divided by the energy of a single photon at 530 nm, given by the equation below
An image of the LED light was taken at 68.58 cm of distance with 1/1000 s exposure to avoid saturation of pixels and converted into quantitative values using ImageJ (Mean value=0.016).

firefly luciferase = firefly luciferase (Photinus pyralis, UniProt P08659); details: strong inhibitor of the luciferase; read-out: IC50 as inhibitor of light production; cited from earlier work
firefly luciferase, sequence (P08659 whole entry): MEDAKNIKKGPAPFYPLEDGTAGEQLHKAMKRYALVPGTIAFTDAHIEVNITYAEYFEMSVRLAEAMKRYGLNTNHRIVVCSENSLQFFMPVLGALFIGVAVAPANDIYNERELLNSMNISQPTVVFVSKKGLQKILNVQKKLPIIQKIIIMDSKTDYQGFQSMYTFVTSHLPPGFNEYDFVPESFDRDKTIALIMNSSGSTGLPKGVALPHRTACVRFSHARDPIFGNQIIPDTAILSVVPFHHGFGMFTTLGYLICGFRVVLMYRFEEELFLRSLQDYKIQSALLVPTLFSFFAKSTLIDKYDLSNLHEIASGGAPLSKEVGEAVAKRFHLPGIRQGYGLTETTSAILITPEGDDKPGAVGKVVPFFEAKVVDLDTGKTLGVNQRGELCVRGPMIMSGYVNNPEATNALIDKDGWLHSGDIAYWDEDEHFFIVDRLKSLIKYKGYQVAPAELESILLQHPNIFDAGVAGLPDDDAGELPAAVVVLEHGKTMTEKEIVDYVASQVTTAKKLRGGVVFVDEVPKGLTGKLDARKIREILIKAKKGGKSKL

light duration extended by ([1]; 200 nM SNP-Luc) [h]	light duration extended by ([1]; 4 μM SNP-Luc) [h]	Compound	light duration compared with free luciferase ([1]; 1 mL mixture, 12 nM luciferase, 100 μM luciferin, 100 μM ATP)	initial number of photons, times higher (living watercress plant) [times]	pIC50 (firefly luciferase)
22	6	SNP-Luc: firefly luciferase immobilized on 7 nm GPTS-PEG amine silica nanoparticles	longer light duration than that of free luciferase	4 to 7	–
–	–	Nc1ncnc2c1ncn2C1OC(COP(=O)(O)OC(=O)c2csc(-c3nc4ccc(O)cc4s3)n2)C(O)C1O (centres unmarked) [dehydroluciferyl-adenylate]	–	–	8.30
